Laboratory results taken from PMC4673936, “Design, Synthesis and Biological Evaluation of New 1, 4-Dihydropyridine (DHP) Derivatives as Selective Cyclooxygenase-2 Inhibitors” (Iranian Journal of Pharmaceutical Research : IJPR, 2015).

Key:
COX-1 = molecular target: T1, COX-1 (Ovis aries, UniProt P05979); assay: biochemical; conditions: ovine COX-1/COX-2 assay kit; mean of two determinations, deviation < 10% of mean
T1 construct: purchased Cayman chemical, MI, USA
T1 sequence (P05979 25-600): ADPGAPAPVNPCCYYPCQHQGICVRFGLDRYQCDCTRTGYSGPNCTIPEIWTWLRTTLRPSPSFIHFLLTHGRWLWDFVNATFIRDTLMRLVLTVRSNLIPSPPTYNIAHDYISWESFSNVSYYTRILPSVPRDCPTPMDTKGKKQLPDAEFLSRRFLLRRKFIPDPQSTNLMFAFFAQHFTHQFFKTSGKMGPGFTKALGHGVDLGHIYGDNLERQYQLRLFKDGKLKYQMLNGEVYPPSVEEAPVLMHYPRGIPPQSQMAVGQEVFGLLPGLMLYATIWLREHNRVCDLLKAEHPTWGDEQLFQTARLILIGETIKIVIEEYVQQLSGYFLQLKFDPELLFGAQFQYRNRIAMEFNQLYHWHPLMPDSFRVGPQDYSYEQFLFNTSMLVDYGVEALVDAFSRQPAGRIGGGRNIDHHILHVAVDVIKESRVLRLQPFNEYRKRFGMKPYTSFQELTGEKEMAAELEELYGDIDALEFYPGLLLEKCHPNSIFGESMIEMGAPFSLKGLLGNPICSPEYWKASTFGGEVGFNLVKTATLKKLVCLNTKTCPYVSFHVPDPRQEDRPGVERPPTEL
Protocol: (§1) A group of 1,4-dihydropyridine derivativespossessing a MeSO2 at the para-position of the C-4 phenyl ring, alkyl groups(R1) at the C-2 position and alkyloxycarbonyl groups(COOR2) at the C-3 position were prepared and evaluated for their ability to inhibit COX-1 and COX-2 using chemiluminescent kit (Cayman chemical, MI, USA) according to our previously reported method ([14]).

COX-2 = molecular target: T2, COX-2 (Ovis aries, UniProt P79208); assay: biochemical; type: biochemical; conditions: for COX-2 S.I. (in-vitro COX-2 selectivity index): COX-1 IC50/COX-2 IC50; for IC50: ovine COX-1/COX-2 assay kit, mean of two determinations, deviation < 10% of mean; for COX-2 inhibitory activity relative to compound 5e (in words): larger groups (propyl, phenyl) at C-2 position of compound 5e
T2 construct: purchased Cayman chemical, MI, USA
T2 sequence (P79208 17-603): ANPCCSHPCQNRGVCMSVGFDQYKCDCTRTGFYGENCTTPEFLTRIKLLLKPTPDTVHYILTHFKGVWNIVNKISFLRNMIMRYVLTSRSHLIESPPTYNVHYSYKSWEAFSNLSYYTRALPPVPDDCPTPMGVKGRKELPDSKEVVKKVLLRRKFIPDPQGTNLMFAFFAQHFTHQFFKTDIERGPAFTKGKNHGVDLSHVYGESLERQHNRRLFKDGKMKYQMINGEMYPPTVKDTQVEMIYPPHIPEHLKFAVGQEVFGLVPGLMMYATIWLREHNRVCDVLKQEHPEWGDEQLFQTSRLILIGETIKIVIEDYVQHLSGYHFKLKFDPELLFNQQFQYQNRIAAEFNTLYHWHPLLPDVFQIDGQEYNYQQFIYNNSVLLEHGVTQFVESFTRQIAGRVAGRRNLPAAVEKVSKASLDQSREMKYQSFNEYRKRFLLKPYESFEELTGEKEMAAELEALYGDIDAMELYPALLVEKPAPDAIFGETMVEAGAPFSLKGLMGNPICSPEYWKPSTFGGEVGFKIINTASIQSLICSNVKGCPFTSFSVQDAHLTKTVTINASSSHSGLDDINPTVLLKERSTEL
Protocol: as §1

| SMILES | IC50 (COX-1) [µM] | COX-2 S.I. (in-vitro COX-2 selectivity index) (COX-2) | IC50 (COX-2) [µM] | melting point [°C] | COX-2 inhibitory activity relative to compound 5e (in words) (COX-2) |
| --- | --- | --- | --- | --- | --- |
| COC(=O)C1=C(C)NC2=C(C(=O)CC(C)(C)C2)C1c1ccc(S(C)(=O)=O)cc1 (stereo not drawn) [Compound 5a, Methyl-1,4,5,6,7,8-hexahydro-2,7,7-trimethyl-4-(4-(methylsulfonyl)phenyl)-5-oxoquinoline-3-carboxylate] | 30.2 | 62.9 | 0.48 | 244 to 245 | – |
| COC(=O)C1=C(N)NC2=C(C(=O)CC(C)(C)C2)C1c1ccc(S(C)(=O)=O)cc1 (stereo not drawn) [Compound 5b, Methyl-2-amino-1,4,5,6,7,8-hexahydro-7,7-dimethyl-4-(4-(methylsulfonyl)phenyl)-5-oxo quinolone-3-carboxylate] | 31 | 70.4 | 0.44 | – | – |
| CCC1=C(C(=O)OC)C(c2ccc(S(C)(=O)=O)cc2)C2=C(CC(C)(C)CC2=O)N1 (stereo not drawn) [Compound 5c, Methyl-2-ethyl-1,4,5,6,7,8-hexahydro-7,7-dimethyl-4-(4-(methylsulfonyl)phenyl)-5-oxoquinoline-3-carboxylate] | 30.7 | 52.1 | 0.59 | 186.5 to 188 | – |
| COC(=O)C1=C(C(C)C)NC2=C(C(=O)CC(C)(C)C2)C1c1ccc(S(C)(=O)=O)cc1 (stereo not drawn) [Compound 5d] | 27.6 | – | 0.62 | – | – |
| CCOC(=O)C1=C(C)NC2=C(C(=O)CC(C)(C)C2)C1c1ccc(S(C)(=O)=O)cc1 (stereo not drawn) [Compound 5e, Ethyl-1,4,5,6,7,8-hexahydro-2,7,7-trimethyl-4-(4-(methylsulfonyl)phenyl)-5-oxoquinoline-3-carboxylate] | 27.6 | 92.0 | 0.3 | 180.7 to 182.3 | – |
| CCCC1=C(C(=O)OCC)C(c2ccc(S(C)(=O)=O)cc2)C2=C(CC(C)(C)CC2=O)N1 (stereo not drawn) [Compound 5f, Ethyl-1,4,5,6,7,8-hexahydro-7,7-dimethyl-4-(4-(methylsulfonyl)phenyl)-5-oxo-2-propylquinoline-3-carboxylate] | 25.2 | 18.2 | 1.38 | 163 to 164 | significant loss of activities |
| CCOC(=O)C1=C(c2ccccc2)NC2=C(C(=O)CC(C)(C)C2)C1c1ccc(S(C)(=O)=O)cc1 (stereo not drawn) [Compound 5g, Ethyl-1,4,5,6,7,8-hexahydro-7,7-dimethyl-4-(4-(methylsulfonyl)phenyl)-5-oxo-2-phenylquinoline-3-carboxylate] | 46.1 | – | > 100 | 187.9 to 189 | significant loss of activities |
| CC1=C(C(=O)OC(C)(C)C)C(c2ccc(S(C)(=O)=O)cc2)C2=C(CC(C)(C)CC2=O)N1 (stereo not drawn) [Compound 5h, t-Butyl-1,4,5,6,7,8-hexahydro-2,7,7-trimethyl-4-(4-methanesulfonyl-phenyl)-5-oxo-quinoline-3-carboxylate] | 25.5 | 63.7 | 0.4 | 163 to 164 | – |
| CC1=C(C(=O)OCc2ccccc2)C(c2ccc(S(C)(=O)=O)cc2)C2=C(CC(C)(C)CC2=O)N1 (stereo not drawn) [Compound 5i] | 22.9 | – | > 100 | 136.9 to 138.9 | – |
